Assays:
[1] = background statement, cited from earlier work; for umami taste: aspartic acid at concentrations comparable to MSG
[2] = Flavourist tasting: umami and salt intensity of solution B versus reference solution A; assay type: in vivo; details: scale -3 (much lower than base) to 3 (much higher), average of 4 flavourists
Description: The samples were tasted by a small group of flavourists (2 male, 2 female, aged between 30 and 60). The intensity of the umami and salt taste of solution B was compared with that of the reference (solution A) and rated according to the following intensity scale: […]

[3] = Flavourist comparison of test Béchamel sauce with cheese with reference sauce; assay type: in vivo; details: 4 flavourists
Procedure: A Béchamel sauce with cheese was prepared from 70 g of butter, 50 g of flower, 1000 g of milk, 5 g of sodium chloride, 0.3 g of MSG, 0.15 g of nutmeg powder, 0.25 g of black pepper and 80 g of cheese powder. A blanc roux was prepared from the butter and flower before adding the other ingredients.

[4] = Flavourist comparison of test bouillon with reference bouillon; assay type: in vivo; details: 200 ppm in bouillon; 4 flavourists
Procedure: A bouillon mix was prepared from 155.0 g of sodium chloride, 157.0 g of dextrose monohydrate (ex Tapioca), 0.2 g of celery oleoresin, 0.3 g of oleoresin turmeric Vegex, 0.2 g of oleoresin coriander seed, 444.8 g maltodextrin 5-8 DE, 40.0 g vegetable oil soya bean refined, 30.0 g yeast standard light, 4.0 g of onion powder, 4.0 g of garlic powder, 0.5 g of white pepper and 164.0 g of potato starch.
32 g of the well-mixed ingredients was added to 1 L of boiling water and stirred until completely dissolved.

[5] = Flavourist tasting: enhancement effect on NaCl, MSG and ribonucleotides; assay type: in vivo; details: effect marked between 0 and 10
Procedure: Six solutions were prepared: • A a solution of 0.5% NaCl • B a solution of 0.5% NaCl and 0.03% MSG • C a solution of 0.5% NaCl and 0.015% ribonucleotides • D a solution of 0.5% NaCl and 10-50 ppm Example 1 compound • E a solution of 0.5% NaCl and 0.03% MSG and 10-50 ppm Example 1 compound • F a solution of 0.5% NaCl and 0.015% ribonucleotides and 10-50 ppm Example 1 compound The samples were tasted by a group of 5-10 flavourists aged between 30 and 60. The taste of solution D is compared with that of A to determine the enhancement effect of Example 1 compound on NaCl. Similarly, solution E is compared with solution B and solution F with solution C to determine the enhancement effect of Example 1 compound on MSG and ribonucleotides respectively. The effect is marked between 0 and 10, the greater the value the greater the effect.

[6] = Flavourist comparison of test white sauce with reference white sauce; assay type: in vivo; details: 4 flavourists
Procedure: A white sauce mix was prepared from 380 g of modified starch Prejel, 200 g of whey powder Esprion 300, 200 g of fat powder (ex DMV), 115 g of sodium chloride, 85.3 g of maltodextrin 14, 3 g of onion powder, 0.2 g of curcuma extract powder (ex turmeric), 1.5 g of white pepper and 15 g of probase high impact.
80 g of the well-mixed ingredients was added to 1 L of boiling water and stirred well.

[7] = 20 ppm in 0.5% NaCl and 0.03% MSG
[8] = 10 ppm in 0.5% NaCl and 0.03% MSG

N[C@@H](CC(=O)O)C(=O)O [aspartic acid]
umami taste [1]: hardly any umami taste

N[C@@H](CCC(=O)O)C(=O)[O-].[Na+] [MSG, monosodium glutamate]
umami taste [1]: highly potent umami tastant

CC(=O)[O-].[Na+] [Sodium acetate]
taste of salts compared with sodium chloride [1]: hardly any taste

CC(CC(N)C(=O)O)C(=O)O (centres unmarked) [2-amino-4-methylpentanedioic acid, 2-amino-4-methylpentanedioic Acid]
Intensity Taste Salt (NaCl) [2, 7]: 1.00
Intensity Taste Umami [2, 7]: 1.25

[Cl-].[K+] [Potassium chloride]
taste of salts compared with sodium chloride [1]: somewhat salty but clearly more bitter

Cl.NC(CC(C(=O)O)c1ccccc1)C(=O)O (centres unmarked) [2-amino-4-phenylpentanedioic acid, HCl, 2-amino-4-phenylpentanedioic Acid, HCl]
Intensity Taste Salt (NaCl) [2, 8]: 0.67
Intensity Taste Umami [2, 8]: 0.00

[Cl][Pb][Cl] [Lead chloride]
taste of salts compared with sodium chloride [1]: tasting sweet

O=C([O-])[C@H](O)[C@@H](O)[C@H](O)[C@H](O)CO.[Na+] [sodium gluconate]
taste of salts compared with sodium chloride [1]: hardly any taste

NC(CC(O)C(=O)O)C(=O)O (centres unmarked) [4-hydroxyglutamic acid, 4-hydroxyglutamic Acid]
taste of test Béchamel sauce with cheese compared with reference ([3]; 400 ppm in Béchamel sauce with cheese): had more body, more mouthfullness and was creamier than the reference Béchamel sauce
taste of test bouillon compared with reference bouillon [4]: had an enhanced body of salt and was more salivating and more savoury-lingering than the reference bouillon
NaCl Taste ([5]; 50 ppm in 0.5% NaCl (solution D versus A, reference 0.0)): 1.7
Ribo taste ([5]; 50 ppm in 0.5% NaCl and 0.015% ribonucleotides (solution F versus C, reference 5.0)): 7.0
MSG taste ([5]; 50 ppm in 0.5% NaCl and 0.03% MSG (solution E versus B, reference 5.0)): 5.7
Intensity Taste Salt (NaCl) [2, 8]: 0.50
Intensity Taste Umami [2, 8]: 0.50
taste of test white sauce compared with reference white sauce ([6]; 300 ppm in white sauce): had an enhanced body of salt and was more salivating and umami-like than the reference white sauce

NC(CC(C(=O)O)C(=O)O)C(=O)O (racemic) [gamma-carboxy-DL-glutamic acid, Gamma-Carboxy-DL-Glutamic Acid]
taste of test Béchamel sauce with cheese compared with reference ([3]; 350 ppm in Béchamel sauce with cheese): more metallic, more ionic, more long-lasting and had more salivating effect than the reference Béchamel sauce
taste of test bouillon compared with reference bouillon [4]: more umami, slightly more bitter, had more an ionic effect and salivating aftertaste than the reference bouillon
NaCl Taste ([5]; 10 ppm in 0.5% NaCl (solution D versus A, reference 0.0)): 2.0
Ribo taste ([5]; 10 ppm in 0.5% NaCl and 0.015% ribonucleotides (solution F versus C, reference 5.0)): 5.5
MSG taste ([5]; 10 ppm in 0.5% NaCl and 0.03% MSG (solution E versus B, reference 5.0)): 5.5
Intensity Taste Salt (NaCl) [2, 8]: 0.67
Intensity Taste Umami [2, 8]: 0.67
taste of test white sauce compared with reference white sauce ([6]; 250 ppm in white sauce): more umami, more metallic, fuller, more long-lasting and slightly more salivating than the reference white sauce

Reference: patent publication US20140272065A1, “ORGANIC COMPOUNDS” (Givaudan S.A., priority 2011, published 2014)
